Experimental data taken from patent US20220153732A1, “PROTEIN SECRETION INHIBITORS” (KEZAR LIFE SCIENCES, priority 2019, published 2022).
pEC50, pIC50: −log10 of the molar value.

Assays:
Format in all cases: cell-based
[1] = tested on: human multiple myeloma cell line NCI-H929; test: H929 Cell Viability Assay; conditions: 48 hr, NCI-H929 cells, Celltiter-Glo, read-out: 48 hr H929 Viability Celltiter-Glo: Mean EC50
Experimental: Plates were incubated at 37° C., 5% CO2 for 48 hours. After 48 hours, Celltiter-Glo® (Promega) was added to each well and luciferase signal was quantified using Tecan Infinite M1000 Pro for cell viability determination.
For chemical structures that include one or more stereoisomers, but are illustrated without indicating stereochemistry, the assay data refers to a mixture of stereoisomers.

[2] = tested on: IL-2-FL/Gaussia Luciferase; test: Dox Induced IL2-FL-Gluc Assay; conditions: 24 hr doxycycline induction, 293FRT/TO cells, Gaussia luciferase signal; read-out: 24 hr Dox Inducible IL2FLGIuc 293FRT/TO: Mean IC50
How it was run: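 Compounds were added together with doxycycline in DMSO/media and incubated at 37° C., 5% CO2. The cells were a stably selected line carrying IL-2-FL/Gaussia luciferase under T-REx inducible control. Structures drawn without stereochemistry were tested as stereoisomer mixtures.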

[3] = tested on: TNFα-FL/Gaussia Luciferase; test: Dox Induced TNFα-FL-Gluc Assay; conditions: 24 hr doxycycline induction, 293FRT/TO cells, Gaussia luciferase signal; read-out: 24 hr Dox Inducible TNFaFLGluc 293FRT/TO: Mean IC50
How it was run: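 Compounds were added in doxycycline-containing DMSO/media to cells plated the previous day and incubated at 37° C under 5% CO2. These cells stably express a TNFα-FL/Gaussia luciferase cDNA whose expression is under T-REx (Dox-inducible) control, selected with Hygromycin and Blasticidin.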

[4] = tested on: PD1-ss+10aa/Gaussia Luciferase; test: Dox-Induced PD1-ss-Gluc Assay; conditions: 24 hr doxycycline induction, 293FRT/TO cells, Gaussia luciferase signal; read-out: 24 hr Dox Inducible PD1ssGluc 293FRT/TO: Mean IC50
How it was run: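 Compounds, diluted in DMSO/media with doxycycline, were added to cells plated a day earlier and kept at 37° C under 5% CO2. The cells stably express a Gaussia luciferase construct fused to PD1-ss+10aa, induced via the T-REx system. Unassigned stereochemistry means mixture data.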

[5] = tested on: human multiple myeloma cell line U266B1; test: U266 Cell Viability Assay; conditions: U-266, 48 hr, U266B1 cells, Celltiter-Glo, read-out: 48 hr U266 Viability Celltiter-Glo: Mean EC50
How it was run: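 Viability measured by CellTiter-Glo luciferase signal after 48 h compound exposure (37 °C, 5% CO2) of U266B1 cells in 384-well format. Where stereochemistry is not shown, data refer to the stereoisomer mixture.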

[6] = tested on: HER3-ss+4aa/Gaussia Luciferase; test: Dox-Induced Her3-ss-Gluc Assay; conditions: 24 hr doxycycline induction, 293FRT/TO cells, Gaussia luciferase signal; read-out: 24 hr Dox Inducible Her3(ss + 4)Gluc 293FRT/TO: Mean IC50
How it was run: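 Compounds, diluted in DMSO/media containing doxycycline, were incubated at 37° C., 5% CO2 with cells seeded one day earlier. The cells stably express HER3-ss+4aa/Gaussia luciferase under T-REx control. Where no stereochemistry is shown, data refer to the mixture of stereoisomers.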

Compound | pEC50 [1] | pIC50 [2] | pIC50 [3] | pIC50 [4] | pEC50 [5] | pIC50 [6]
O=C(Nc1nc(/C=C/c2ccoc2)cs1)c1cccn1CCCc1ccncc1 [Compound A232, N-(4-(2-(furan-3-yl)vinyl)thiazol-2-yl)-1-(3-(pyridin-4-yl)propyl)-1H-pyrrole-2-carboxamide] | 4.87 | 5.07 | 4.67 | 5.52 | 4.71 | 4.83
O=C(Nc1nc(/C=C/c2ccc(N3CCCCC3)cc2)cs1)c1cccn1Cc1ccncc1 [Compound A233] | 5.24 | 6.20 | 5.65 | 7.25 | < 4.60 | 6.52
O=C(Nc1nc(/C=C/c2ccc3c(c2)OCO3)cs1)c1cccn1Cc1ccncc1 [Compound A234, N-(4-(2-(benzo[d][1,3]dioxo1-5-yl)vinyl)thiazol-2-yl)-1-(pyridin-4-ylmethyl)-1H-pyrrole-2-carboxamide] | 5.35 | 6.47 | < 4.60 | 7.20 | < 4.60 | 6.67
O=C(Nc1nc(/C=C/c2ccc3c(c2)OC(F)(F)O3)cs1)c1cccn1Cc1ccncc1 [Compound A235, N-(4-(2-(2,2-difluorobenzo[d][1,3]dioxo1-5-yl)vinyl)thiazol-2-yl)-1-(pyridin-4-ylmethyl)-1H-pyrrole-2-carboxamide] | 5.38 | 6.63 | < 4.60 | 7.20 | < 4.60 | 6.84
CC(C)Oc1ccc(/C=C/c2csc(NC(=O)c3cccn3Cc3ccncc3)n2)cc1 [Compound A236, N-(4-(4-isopropoxystyryl)thiazol-2-yl)-1-(pyridin-4-ylmethyl)-1H-pyrrole-2-carboxamide] | 5.11 | 6.00 | 5.49 | 7.06 | < 4.60 | 6.27
O=C(Nc1nc(/C=C/c2ccc3ncccc3c2)cs1)c1cccn1Cc1ccncc1 [Compound A237] | 4.73 | 5.73 | < 4.60 | 6.54 | < 4.60 | 5.95
CC(C)OC(C)(C)c1csc(NC(=O)c2cccn2Cc2ccncc2Cl)n1 [Compound A238, 1-((3-chloropyridin-4-yl)methyl)-N-(4-(2-isopropoxypropan-2-yl)thiazol-2-yl)-1H-pyrrole-2-carboxamide] | < 4.60 | 5.92 | 4.74 | 6.19 | < 4.60 | 5.80
CNC(=O)c1ccc(/C=C/c2csc(NC(=O)c3cccn3Cc3ccncc3)n2)cc1 [Compound A239] | < 4.60 | < 4.60 | < 4.60 | 5.82 | < 4.60 | < 4.60
COc1ccc(/C=C/c2csc(NC(=O)c3cccn3Cc3ccncc3)n2)cc1F [Compound A240, N-(4-(3-fluoro-4-methoxystyryl)thiazol-2-yl)-1-(pyridin-4-ylmethyl)-1H-pyrrole-2-carboxamide] | 4.93 | 6.35 | 5.11 | 7.26 | < 4.60 | 6.57
COc1ccc(/C=C/c2csc(NC(=O)c3cccn3Cc3ccncc3)n2)c(F)c1 [Compound A241, N-(4-(2-fluoro-4-methoxystyryl)thiazol-2-yl)-1-(pyridin-4-ylmethyl)-1H-pyrrole-2-carboxamide] | 5.08 | 6.49 | 5.88 | 7.57 | < 4.60 | 6.75
O=C(Nc1nc(C2=Cc3ccccc3C2)cs1)c1cccn1Cc1ccncc1 [Compound A242, N-(4-(1H-inden-2-yl)thiazol-2-yl)-1-(pyridin-4-ylmethyl)-1H-pyrrole-2-carboxamide] | < 4.60 | < 4.60 | < 4.60 | 6.55 | < 4.60 | 6.22
CC(C)OC(C)(C)c1csc(NC(=O)c2cccn2CCCc2ccncc2F)n1 [Compound A243, 1-(3-(3-fluoropyridin-4-yl)propyl)-N-(4-(2-isopropoxypropan-2-yl)thiazol-2-yl)-1H-pyrrole-2-carboxamide] | 4.83 | 6.87 | 5.63 | 6.75 | < 4.60 | 6.70
O=C(Nc1nc(/C=C/C2=CCCCC2)cs1)c1cccn1Cc1ccncc1 [Compound A244, N-(4-(2-(cyclohex-1-en-1-yl)vinyl)thiazol-2-yl)-1-(pyridin-4-ylmethyl)-1H-pyrrole-2-carboxamide] | 4.75 | 6.19 | 5.84 | 7.09 | 4.76 | 6.65
CC(=O)N(C)c1ccc(/C=C/c2csc(NC(=O)c3cccn3Cc3ccncc3)n2)cc1 [Compound A245] | 5.04 | 4.85 | 4.65 | 5.50 | 4.76 | < 4.60
CN(C)C(=O)c1ccc(/C=C/c2csc(NC(=O)c3cccn3Cc3ccncc3)n2)cc1 [Compound A246] | 4.85 | < 4.60 | < 4.60 | 6.28 | 4.99 | 4.66
C/C(=C\c1ccccc1)c1csc(NC(=O)c2cccn2Cc2ccncc2)n1 [Compound A247, N-(4-(1-phenylprop-1-en-2-yl)thiazol-2-yl)-1-(pyridin-4-ylmethyl)-1H-pyrrole-2-carboxamide] | < 4.60 | 6.10 | 5.63 | 6.84 | < 4.60 | 6.42
O=C(Nc1nc(/C=C/c2ccc(OC3CC3)cc2)cs1)c1cccn1Cc1ccncc1 [Compound A248, N-(4-(4-cyclopropoxystyryl)thiazol-2-yl)-1-(pyridin-4-ylmethyl)-1H-pyrrole-2-carboxamide] | < 4.60 | 6.68 | 5.82 | 7.42 | < 4.60 | 6.82
O=C(Nc1nc(C2=CCC(c3ccccc3)CC2)cs1)c1cccn1Cc1ccncc1 (stereo not drawn) [Compound A249, 1-(pyridin-4-ylmethyl)-N-(4-(1,2,3,6-tetrahydro-[1,1-biphenyl]-4-yl)thiazol-2-yl)-1H-pyrrole-2-carboxamide] | 4.70 | 6.06 | 5.85 | 6.79 | 4.84 | 6.26
CCc1cnccc1Cn1cccc1C(=O)Nc1nc(C(C)(C)OC(C)C)cs1 [Compound A250, 1-((3-ethylpyridin-4-yl)methyl)-N-(4-(2-isopropoxypropan-2-yl)thiazol-2-yl)-1H-pyrrole-2-carboxamide] | < 4.60 | 5.13 | < 4.60 | 5.28 | < 4.60 | 4.81
CC(/C=C/c1csc(NC(=O)c2cccn2Cc2ccncc2)n1)c1ccccc1 (stereo not drawn) [Compound A251] | 4.93 | 6.26 | 5.85 | 6.90 | < 4.60 | 6.46
C/C(=C\c1csc(NC(=O)c2cccn2Cc2ccncc2)n1)c1ccccc1 [Compound A252] | 4.85 | 5.89 | 5.16 | 6.28 | < 4.60 | 5.95
